Experiments:
[1] = system: red blood cell preparation; assay: Storage of red blood cell preparations in blood bags with CO2: pCO2, lactate, glucose and pH levels; assay type: cell-based; conditions: for Glucose / Lactate: red blood cell preparation
Method: Red blood cells were collected and processed using standard techniques and stored in standard blood bags. Prior to collecting the red blood cells, an empty blood bag containing anti-coagulated citrate phosphate dextrose with adenine (AS1) was flushed with CO2 for one minute. The collection bag was then filled with blood from a donor. Next, 50 cubic centimeters of CO2 were added to the bag via the sterile docking port. The bag was gently inverted for 30 seconds and then placed upright. Using an empty syringe, the 50 cubic centimeters of air/CO2 was removed from the bag through the sterile docking port. The controls were red blood cell preparations placed in blood bags not flushed with CO2 and not exposed to 50 cubic centimeters of CO2.
The control and CO2 treated red blood cell preparations were tested for pCO2 (or pO2) levels, lactate levels, glucose levels, and pH levels at days 0, 14, and 21 (Table 1). […] This fall in pH is reversible, and pH levels can return to normal values of […] when normal pCO2 levels (e.g., 40-60 mmHg) are re-established.

[2] = system: platelets in platelet-rich plasma (PRP); assay: Platelet aggregation of PRP by optical aggregometry after equilibration with 99% CO2; assay type: cell-based, human
Method: Fresh human whole blood was drawn into 3.2% sodium citrate, and platelet-rich plasma (PRP) was prepared. Control citrated PRP was stored at room temperature in a polypropylene tube. CO2 was exposed to the air/fluid interface of PRP using a 99.9% CO2 tank. CO2 was administered for approximately 60 seconds during which time the pH dropped from an average value of 7.4 to 6.4.
Using a Chronolog 700 platelet aggregometer, platelet aggregation was performed pre- and post-CO2 to ADP, AA, and Epi. Platelet aggregometry was carried out as described elsewhere (Born and Cross, J. Physiol., 168:178-195 (1963)). The assay was performed at 37° C. with a sample stir speed of 1200 r.p.m. Each sample consisted of 450 μL platelet rich plasma.
In another study, the impact of CO2 on platelet function was explored by equilibrating platelet-rich plasma (PRP) with 99% CO2. The PRP was prepared by low-speed centrifugation of blood anticoagulated with 3.2% sodium citrate and kept in capped polypropylene tubes. Platelet function was measured by optical aggregometry with ADP and epinephrine as triggers. Equilibration with CO2 under a positive flow of gas was monitored by the fall in pH from 7.2 to 6.4, which typically occurs within 60 seconds. Degassing of CO2 by a flow of room air over the PRP was verified by the return to pH 7.2. Immediately after removal of the PRP from the CO2 atmosphere, aggregation to ADP and epinephrine was suppressed (FIG. 18, first set). When the samples had returned to pH 7.2, aggregation to both triggers was restored (FIG. 18, center set).

[3] = system: platelets; assay: ATP secretion of platelets induced with 1 μM thrombin (Zylux luminometer); assay type: cell-based, human; conditions: after 24 hours storage at room temperature
Method: ATP secretion was performed using a Zylux luminometer where the secretion was induced using 1 μM thrombin. […] However, the CO2 treated platelets had approximately 80% of baseline secretion after 24 hours storage.

[4] = system: Bacillus cereus; assay: Bacterial growth in spiked PRP, quantitative culture after 30 hours; assay type: cell-based; conditions: PRP spiked with 10 CFU, approximately 30 hours at room temperature
Method: (§1) Clinical isolates of Bacillus cereus and Pseudomonas aeruginosa were spiked into control and CO2 treated platelets at a concentration of 10 CFU (i.e., 10 bacteria total, not 10 CFU/mL). The platelets were stored for approximately 30 hours at room temperature on a platelet agitator. After 30 hours, quantitative culture was performed on serial dilutions of the platelet sample on 5% sheep blood agar plates.

[5] = system: Pseudomonas aeruginosa; assay: as above; assay type: cell-based; conditions: PRP spiked with 10 CFU, approximately 30 hours at room temperature
Method: as §1

[6] = system: Bacillus cereus; assay: Bacterial growth in inoculated apheresis platelet unit, quantitative culture; assay type: cell-based; conditions: platelets exposed to 99% CO2 for 10 minutes
Method: (§2) Outdated apheresis platelet unit (day 6) was obtained from the Mayo Clinic components laboratory. About half of the platelet unit was perfused with 99% CO2 gas for 10 minutes with mixing. Control samples without CO2 exposure and CO2-treated samples of 10 mL volume were inoculated with clinical isolates of eight different organisms. Control and CO2 samples were spiked with identical bacterial loads. Quantitative culture using 5% sheep blood agar plates was conducted immediately following inoculation (0 hours) and at 24 and 48 hour time points. Time 0 hour inoculation load was selected to compensate for observed “spike and die” in outdated apheresis platelet units. The time 0 hour value represented the value of the initial spike.

[7] = system: Corynebacterium; assay: as above; assay type: cell-based; conditions: platelets exposed to 99% CO2 for 10 minutes
Method: as §2

[8] = system: E. coli; assay: as above; assay type: cell-based; conditions: platelets exposed to 99% CO2 for 10 minutes
Method: as §2

[9] = system: Enterobacter cloacae; assay: as above; assay type: cell-based; conditions: platelets exposed to 99% CO2 for 10 minutes
Method: as §2

[10] = system: Klebsiella oxytoca; assay: as above; assay type: cell-based; conditions: platelets exposed to 99% CO2 for 10 minutes
Method: as §2

[11] = system: S. aureus; assay: as above; assay type: cell-based; conditions: platelets exposed to 99% CO2 for 10 minutes
Method: as §2

[12] = system: S. epidermidis; assay: as above; assay type: cell-based; conditions: platelets exposed to 99% CO2 for 10 minutes
Method: as §2

[13] = system: S. pyogenes; assay: as above; assay type: cell-based; conditions: platelets exposed to 99% CO2 for 10 minutes
Method: as §2

[14] = storage with CO2, compared to controls

Question: What does the source list for O=C=O [CO2]?
Answer: Glucose ([1]; day 0 of storage): 571 mg/dL; Lactate ([1]; day 0 of storage): 1.2 µmol/mL; Glucose ([1]; day 14 of storage): 503 mg/dL; Lactate ([1]; day 14 of storage): 5 µmol/mL; Glucose ([1]; day 21 of storage): 478 mg/dL; Lactate ([1]; day 21 of storage): 5.3 µmol/mL; glucose consumption [1, 14]: inhibition; lactate formation [1, 14]: inhibition; aggregation ([2]; after 24 hours under CO2): equivalent to that of controls; aggregation to ADP and epinephrine ([2]; after samples had returned to pH 7.2): restored; aggregation to ADP and epinephrine ([2]; immediately after removal of the PRP from the CO2 atmosphere): suppressed; ATP secretion, of baseline [3]: approximately 80%; bacterial growth [4]: no growth; bacterial growth [5]: no growth; bacterial growth ([6]; 0 hours (initial spike)): 1.00E+01 CFU/mL; bacterial growth ([6]; 24 hours): no; bacterial growth ([6]; 48 hours): no; bacterial growth ([7]; 0 hours (initial spike)): 7.90E+02 CFU/mL; bacterial growth ([7]; 24 hours): 2.70E+02 CFU/mL; bacterial growth ([7]; 48 hours): 4.20E+02 CFU/mL; bacterial growth ([8]; 24 hours): 1.80E+02 CFU/mL; bacterial growth ([8]; 48 hours): 5.20E+03 CFU/mL; bacterial growth ([9]; 0 hours (initial spike)): 1.22E+03 CFU/mL; bacterial growth ([9]; 24 hours): 1.20E+06 CFU/mL; bacterial growth ([9]; 48 hours): 8.60E+07 CFU/mL; bacterial growth ([10]; 0 hours (initial spike)): 8.10E+02 CFU/mL; bacterial growth ([10]; 24 hours): 1.15E+04 CFU/mL; bacterial growth ([10]; 48 hours): 4.30E+05 CFU/mL; bacterial growth ([11]; 0 hours (initial spike)): 1.17E+03 CFU/mL; bacterial growth ([11]; 24 hours): 3.20E+03 CFU/mL; bacterial growth ([11]; 48 hours): 2.70E+04 CFU/mL; bacterial growth ([12]; 0 hours (initial spike)): 6.10E+02 CFU/mL; bacterial growth ([12]; 24 hours): 3.30E+02 CFU/mL; bacterial growth ([12]; 48 hours): 4.20E+02 CFU/mL; bacterial growth ([13]; 0 hours (initial spike)): 1.55E+03 CFU/mL; bacterial growth ([13]; 24 hours): 1.20E+05 CFU/mL; bacterial growth ([13]; 48 hours): 8.00E+07 CFU/mL
